Test system: neural stem cells
Test: Amyloid beta toxicity, MTT assay, OPN antagonist treatment
Format: cell-based
Description: Next, to confirm the function of the OPN protein for amyloid beta neurotoxicity, the inventors confirmed the level of amyloid beta toxicity according to the treatment of an OPN antagonist or OPN siRNA using neuronal cells.
Specifically, approximately 5×10^4 neural stem cells were seeded in a 24-well plate, and cultured at 37° C. in a CO2 incubator for 24 hours. The medium in the cell-containing plate was replaced with an antibiotic-free, 0.1% serum-containing medium, treated with 0.5 μM levocetirizine (Sigma-Aldrich, L7795, OPN antagonist), and after 6 to 7 hours, the cells were further treated with 3 μM amyloid beta, and after 48 hours of culture, cell viability was confirmed through an MTT assay.

Row | Substance | cell viability (neural stem cells treated with 3 μM amyloid beta alone) | amyloid beta toxicity (0.5 μM levocetirizine with 3 μM amyloid beta, 48 hours)
1 | amyloid beta | approximately 60% | –
2 | levocetirizine | – | greatly decreased

— patent US20230265435A1, “COMPOSITION COMPRISING OSTEOPONTIN INHIBITOR AS ACTIVE INGREDIENT FOR PREVENTION, ALLEVIATION, OR TREATMENT OF NEURODEGENERATIVE DISEASE” (THE CATHOLIC UNIVERSITY OF KOREA INDUSTRY-ACADEMIC …, priority 2020, published 2023)
